Experimental data taken from ChEMBL document CHEMBL4118139, “Novel naphthyloxy derivatives - Potent histamine H3 receptor ligands. Synthesis and pharmacological evaluation” (Bioorg Med Chem, 2018).
Active and inactive are the calls of the source. The rule behind the calls is not given here.

Legend:
Mus musculus [1] = test: Anticonvulsant activity in ip dosed albino CF-1 mouse assessed as protection against subcutaneous pentylenetetrazole-induced seizures measured after 1 hr; type: functional; conditions: CF-1, 1 h
Mus musculus [2] = test: Anticonvulsant activity in ip dosed albino CF-1 mouse assessed as protection against 32 mA current-induced seizure after 1 hr by 6 Hz psychomotor test; type: functional; conditions: CF-1, ip
Mus musculus [3] = test: Anticonvulsant activity in ip dosed albino CF-1 mouse assessed as protection against 44 mA current-induced seizure after 0.25 hrs by 6 Hz psychomotor test; type: functional; conditions: CF-1, ip
Histamine H3 receptor [4] = biological target: T1, Histamine H3 receptor (Homo sapiens, UniProt Q9Y5N1); test: Displacement of [3H]N-alpha-methylhistamine from full length human H3 receptor expressed in HEK293 cell membranes after 90 mins
HEK293 = test: Cytotoxicity against HEK293 cells assessed as reduction in cell viability after 72 hrs by MTS assay; type: cell-based; conditions: Homo sapiens, HEK293, 72 h
IMR-32 = test: Cytotoxicity against human IMR32 cells assessed as reduction in cell viability after 72 hrs by MTS assay; type: cell-based; conditions: IMR-32, 72 h
HepG2 = test: Cytotoxicity against human HepG2 cells assessed as reduction in cell viability after 72 hrs by MTS assay; type: cell-based; conditions: HepG2, 72 h
CYP3A4 = CYP3A4 (Homo sapiens, UniProt P08684); test: Inhibition of CYP3A4 (unknown origin) at 25 uM by CYP3A4 P450-Glo assay; type: ADME
Salmonella typhimurium [5] = test: Mutagenicity in Salmonella typhimurium TA100 assessed as increase in number of revertants at 1 uM after 90 mins by Ames test; type: toxicity, organism-based; conditions: salmonella enterica subsp. enterica serovar typhimurium, 1.5 h
Salmonella typhimurium [6] = test: Mutagenicity in Salmonella typhimurium TA100 assessed as increase in number of revertants at 10 uM after 90 mins by Ames test; type: toxicity, organism-based; conditions: salmonella enterica subsp. enterica serovar typhimurium, 1.5 h
[7] = Neurotoxicity in ip dosed albino CF-1 mouse after 0.25 hrs by rotarod test; type: toxicity, organism-based; conditions: in vivo
Mus musculus [8] = test: Anticonvulsant activity in ip dosed albino CF-1 mouse assessed as protection against maximal electroshock-induced seizures after 1 hr; type: functional; conditions: CF-1, ip
[9] = Therapeutic index, ratio of ip dosed albino CF-1 mouse TD50 to ip dosed albino CF-1 mouse ED50 for MES assay; type: toxicity, organism-based; conditions: in vivo, read-out: TI
Histamine H3 receptor [10] = biological target: Histamine H3 receptor (Rattus norvegicus, UniProt Q9QYN8); test: Displacement of [3H]-(R)alpha-MeHA from rat brain H3 receptor
Mus musculus [11] = test: Analgesic activity in ip dosed albino Swiss CD1 mouse assessed reduction in formalin-induced inflammatory pain by measuring reduction in time spent in licking treated prior to formalin injection measured at 0 to 5 mins post formalin injection; type: functional
Mus musculus [12] = test: (§1) Cognition enhancing effect in albino Swiss CD-1 mouse assessed as reversal of scopolamine-induced amnesia at 20 to 30 mg/kg, ip treated 30 mins prior to acquisition trial followed by scopolamine challenge immediately after acquisition trial by passive avoidance test (reference value: 39.31 +/- 4.01 secs); type: functional, organism-based
Histamine H3 receptor [13] = biological target: T1, Histamine H3 receptor; test: Antagonist activity at human H3 receptor expressed in HEK293 cells assessed as inhibition of RAMH-induced reduction of forskolin-stimulated cAMP accumulation after 30 mins by Ulight-based TR-FRET assay; type: functional, cell-based
Rattus norvegicus [14] = test: In vivo antagonist activity at H3 receptor in RAMH-induced dipsogenic ip dosed Wistar (Krf:(WI) WU) rat model assessed as inhibition of RAMH-water intake administered 30 mins prior to RAMH induction; type: functional
[15] = biological target: Histamine H1 receptor (Cavia porcellus) (UniProt P31389); test: Agonist activity at histamine H1 receptor in guinea-pig ileum assessed as induction of contractions at 1 to 3 uM after 15 mins; type: functional
[16] = biological target: Muscarinic acetylcholine receptor M3 (Cavia porcellus) (UniProt Q8VH26); test: Agonist activity at muscarinic M3 receptor in guinea-pig ileum assessed as induction of contractions at 1 to 3 uM after 15 mins; type: functional
[17] = biological target: Histamine H1 receptor (Cavia porcellus) (UniProt P31389); test: Antagonist activity at histamine H1 receptor in guinea-pig ileum assessed as inhibition of histamine-induced contractions after 15 mins; type: functional
Histamine H1 receptor = Histamine H1 receptor (Cavia porcellus, UniProt P31389); test: Antagonist potency at histamine H1 receptor in guinea-pig ileum assessed as inhibition of histamine-induced contractions at 0.3 to 3 uM after 15 mins; type: functional; conditions: read-out: pA2 (converted)
Mus musculus [18] = test: as §1, with “amnesia by measuring latency time” for “amnesia”, “15” for “20 to 30”; type: functional
Mus musculus [19] = test: as §1, with “amnesia by measuring latency time” for “amnesia”, “10” for “20 to 30”; type: functional
Mus musculus [20] = test: Analgesic activity in ip dosed albino Swiss CD1 mouse assessed reduction in formalin-induced inflammatory pain by measuring reduction in time spent in licking pretreated prior to formalin injection measured at 15 to 30 mins post formalin injection; type: functional
Mus musculus [21] = test: Effect on spontaneous locomotor activity in ip dosed albino Swiss CD1 mouse assessed as inhibition of number of light beam crossings treated for 30 mins measured for next 30 mins in 10 min intervals; type: organism-based; conditions: in vivo, 0.5 h
[22] = biological target: Histamine H1 receptor (Homo sapiens) (UniProt P35367); test: Displacement of [3H]-pyrilamine from human histamine H1 receptor expressed in CHO cell membranes at 1 uM relative to chlorpheniramine
[23] = biological target: Histamine H4 receptor (Homo sapiens) (UniProt Q9H3N8); test: Displacement of [3H]-Histamine from human histamine H4 receptor expressed in insect sf9 cell membranes at 1 uM relative to JNJ-7777120
[24] = biological target: D(1A) dopamine receptor (Homo sapiens) (UniProt P21728); test: Displacement of [3H]-SCH23390 from human dopamine D1 receptor expressed in HEK293 cell membranes at 1 uM relative to fluphenazin
[25] = biological target: D(1B) dopamine receptor (Homo sapiens) (UniProt P21918); test: Displacement of [3H]-SCH23390 from human dopamine D5 receptor expressed in HEK293 cell membranes at 1 uM relative to fluphenazin
[26] = biological target: D(2) dopamine receptor (Homo sapiens) (UniProt P14416); test: Displacement of [3H]-spiperone from human dopamine D2 receptor expressed in CHO cell membranes at 1 uM relative to haloperidol
[27] = biological target: D(3) dopamine receptor (Homo sapiens) (UniProt P35462); test: Displacement of [3H]-spiperone from human dopamine D3 receptor expressed in CHO cell membranes at 1 uM relative to haloperidol
[28] = biological target: 5-hydroxytryptamine receptor 2A (Homo sapiens, UniProt P28223); test: Displacement of [3H]-ketanserin from human 5-HT2A receptor expressed in CHO cell membranes after 1 hr
[29] = biological target: 5-hydroxytryptamine receptor 6 (Homo sapiens, UniProt P50406); test: Displacement of [3H]-LSD from human 5-HT6 receptor expressed in HEK293 cell membranes after 1 hr
[30] = biological target: 5-hydroxytryptamine receptor 7 (Homo sapiens, UniProt P34969); test: Displacement of [3H]-5-carboxyamidotryptamine from human 5-HT7 receptor expressed in HEK293 cell membranes after 1 hr
Rattus norvegicus [31] = test: In vivo antagonist activity at H3 receptor in RAMH-induced dipsogenic Wistar (Krf:(WI) WU) rat model assessed as inhibition of RAMH-water intake at 1.25 mg/kg, ip administered 30 mins prior to RAMH induction; type: functional
Mus musculus [32] = test: as §1, with “amnesia by measuring latency time” for “amnesia”, “at” for “at 20 to”; type: functional
Histamine H3 receptor [33] = biological target: T1, Histamine H3 receptor; test: Displacement of […] from full length recombinant human H3 receptor expressed in HEK293 cell membranes after 90 mins by scintillation counting method

T1 sequence (Q9Y5N1 whole entry): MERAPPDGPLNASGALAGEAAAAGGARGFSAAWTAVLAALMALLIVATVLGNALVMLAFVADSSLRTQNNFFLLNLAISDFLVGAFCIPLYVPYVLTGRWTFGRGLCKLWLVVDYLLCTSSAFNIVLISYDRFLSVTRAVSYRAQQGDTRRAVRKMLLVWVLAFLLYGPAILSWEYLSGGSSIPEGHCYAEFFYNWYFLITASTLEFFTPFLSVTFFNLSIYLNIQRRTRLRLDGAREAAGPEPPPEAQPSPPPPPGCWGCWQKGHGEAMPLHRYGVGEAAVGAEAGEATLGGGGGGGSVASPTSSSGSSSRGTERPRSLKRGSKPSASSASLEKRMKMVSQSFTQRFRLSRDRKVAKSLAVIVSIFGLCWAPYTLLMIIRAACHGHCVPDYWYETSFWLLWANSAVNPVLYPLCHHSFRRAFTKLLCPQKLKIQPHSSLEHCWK
Sequence of CYP3A4 (P08684 whole entry): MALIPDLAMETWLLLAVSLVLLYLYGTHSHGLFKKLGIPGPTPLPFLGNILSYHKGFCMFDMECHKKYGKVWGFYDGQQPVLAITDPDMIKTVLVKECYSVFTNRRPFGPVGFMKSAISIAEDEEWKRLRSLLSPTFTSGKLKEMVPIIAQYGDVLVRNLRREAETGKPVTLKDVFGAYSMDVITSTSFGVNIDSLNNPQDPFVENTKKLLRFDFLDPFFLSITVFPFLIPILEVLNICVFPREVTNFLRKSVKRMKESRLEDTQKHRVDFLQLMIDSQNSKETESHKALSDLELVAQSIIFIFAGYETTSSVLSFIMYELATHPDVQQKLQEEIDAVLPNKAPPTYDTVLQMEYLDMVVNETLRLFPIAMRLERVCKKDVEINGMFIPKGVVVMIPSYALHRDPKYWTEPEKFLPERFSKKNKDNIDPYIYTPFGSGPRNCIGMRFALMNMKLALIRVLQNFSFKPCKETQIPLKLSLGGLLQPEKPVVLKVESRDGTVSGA
Sequence of Histamine H1 receptor (Cavia porcellus) (P31389 whole entry): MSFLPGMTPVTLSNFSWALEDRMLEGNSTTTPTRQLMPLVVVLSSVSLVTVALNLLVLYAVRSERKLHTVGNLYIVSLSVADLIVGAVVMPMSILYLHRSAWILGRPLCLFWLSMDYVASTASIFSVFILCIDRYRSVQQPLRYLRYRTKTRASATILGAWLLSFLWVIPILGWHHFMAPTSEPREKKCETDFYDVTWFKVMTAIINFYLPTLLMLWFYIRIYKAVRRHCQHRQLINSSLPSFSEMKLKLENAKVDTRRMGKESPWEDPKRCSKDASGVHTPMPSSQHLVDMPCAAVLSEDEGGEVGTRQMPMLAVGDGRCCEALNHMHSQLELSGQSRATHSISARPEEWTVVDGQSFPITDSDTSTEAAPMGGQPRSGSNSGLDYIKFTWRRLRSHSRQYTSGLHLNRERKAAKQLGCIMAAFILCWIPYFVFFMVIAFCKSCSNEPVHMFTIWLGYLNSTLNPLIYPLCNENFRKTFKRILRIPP
Sequence of 5-hydroxytryptamine receptor 2A (P28223 whole entry): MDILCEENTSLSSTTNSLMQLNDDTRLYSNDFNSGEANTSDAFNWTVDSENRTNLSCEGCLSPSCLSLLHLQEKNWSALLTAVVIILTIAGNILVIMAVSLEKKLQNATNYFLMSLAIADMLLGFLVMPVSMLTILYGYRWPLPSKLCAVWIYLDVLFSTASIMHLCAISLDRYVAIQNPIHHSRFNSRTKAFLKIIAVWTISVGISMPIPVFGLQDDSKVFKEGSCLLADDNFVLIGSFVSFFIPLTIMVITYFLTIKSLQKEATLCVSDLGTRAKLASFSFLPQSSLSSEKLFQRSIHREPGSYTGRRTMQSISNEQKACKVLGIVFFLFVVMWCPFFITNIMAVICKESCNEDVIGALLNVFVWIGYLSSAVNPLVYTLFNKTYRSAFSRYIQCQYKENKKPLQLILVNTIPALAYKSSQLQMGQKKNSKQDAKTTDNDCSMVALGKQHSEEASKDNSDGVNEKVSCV
Sequence of 5-hydroxytryptamine receptor 6 (P50406 whole entry): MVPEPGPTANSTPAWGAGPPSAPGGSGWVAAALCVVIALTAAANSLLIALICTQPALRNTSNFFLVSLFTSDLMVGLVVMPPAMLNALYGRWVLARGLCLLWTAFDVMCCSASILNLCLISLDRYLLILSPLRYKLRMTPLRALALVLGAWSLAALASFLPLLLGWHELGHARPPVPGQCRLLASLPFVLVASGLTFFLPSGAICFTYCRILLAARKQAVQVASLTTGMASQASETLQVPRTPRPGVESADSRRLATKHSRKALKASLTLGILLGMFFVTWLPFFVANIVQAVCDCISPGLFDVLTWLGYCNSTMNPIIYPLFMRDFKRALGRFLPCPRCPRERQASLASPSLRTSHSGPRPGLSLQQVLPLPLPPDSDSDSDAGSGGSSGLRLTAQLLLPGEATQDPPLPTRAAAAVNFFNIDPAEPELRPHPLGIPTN
Sequence of D(3) dopamine receptor (Homo sapiens) (P35462 whole entry): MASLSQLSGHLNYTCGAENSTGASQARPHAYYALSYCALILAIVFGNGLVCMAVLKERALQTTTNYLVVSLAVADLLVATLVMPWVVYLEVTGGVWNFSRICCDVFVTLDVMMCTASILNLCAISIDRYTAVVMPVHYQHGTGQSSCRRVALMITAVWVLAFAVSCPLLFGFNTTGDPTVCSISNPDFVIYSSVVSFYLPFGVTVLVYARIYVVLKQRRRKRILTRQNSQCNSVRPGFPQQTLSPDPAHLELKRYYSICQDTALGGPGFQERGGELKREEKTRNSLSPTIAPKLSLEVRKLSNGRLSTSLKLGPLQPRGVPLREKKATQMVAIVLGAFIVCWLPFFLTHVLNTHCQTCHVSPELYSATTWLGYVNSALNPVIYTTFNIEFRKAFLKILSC
Sequence of D(1A) dopamine receptor (Homo sapiens) (P21728 whole entry): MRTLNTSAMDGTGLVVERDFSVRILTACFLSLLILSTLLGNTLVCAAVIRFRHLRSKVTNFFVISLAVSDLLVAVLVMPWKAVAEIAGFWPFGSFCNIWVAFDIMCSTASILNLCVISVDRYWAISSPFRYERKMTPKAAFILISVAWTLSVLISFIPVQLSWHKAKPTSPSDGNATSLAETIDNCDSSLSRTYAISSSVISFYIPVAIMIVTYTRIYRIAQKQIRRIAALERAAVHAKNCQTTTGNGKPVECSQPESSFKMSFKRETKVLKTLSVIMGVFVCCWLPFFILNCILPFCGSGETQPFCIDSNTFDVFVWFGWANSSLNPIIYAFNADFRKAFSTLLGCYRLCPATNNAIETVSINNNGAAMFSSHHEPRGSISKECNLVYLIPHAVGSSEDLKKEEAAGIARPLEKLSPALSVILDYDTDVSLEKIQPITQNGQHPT
Sequence of Histamine H3 receptor (Rattus norvegicus, UniProt Q9QYN8) (Q9QYN8 whole entry): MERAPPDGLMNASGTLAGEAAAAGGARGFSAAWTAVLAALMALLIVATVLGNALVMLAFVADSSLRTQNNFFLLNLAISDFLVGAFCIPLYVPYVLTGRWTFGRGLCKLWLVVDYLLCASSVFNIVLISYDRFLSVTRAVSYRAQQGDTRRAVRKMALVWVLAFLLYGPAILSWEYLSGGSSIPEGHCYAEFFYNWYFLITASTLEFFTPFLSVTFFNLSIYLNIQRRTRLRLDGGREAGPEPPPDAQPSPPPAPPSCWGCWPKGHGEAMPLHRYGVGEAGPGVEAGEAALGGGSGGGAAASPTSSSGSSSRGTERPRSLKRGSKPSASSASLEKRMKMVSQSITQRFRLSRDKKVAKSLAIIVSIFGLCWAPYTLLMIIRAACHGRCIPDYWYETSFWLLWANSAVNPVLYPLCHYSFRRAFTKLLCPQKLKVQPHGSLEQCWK
Sequence of Muscarinic acetylcholine receptor M3 (Cavia porcellus) (Q8VH26 1-587): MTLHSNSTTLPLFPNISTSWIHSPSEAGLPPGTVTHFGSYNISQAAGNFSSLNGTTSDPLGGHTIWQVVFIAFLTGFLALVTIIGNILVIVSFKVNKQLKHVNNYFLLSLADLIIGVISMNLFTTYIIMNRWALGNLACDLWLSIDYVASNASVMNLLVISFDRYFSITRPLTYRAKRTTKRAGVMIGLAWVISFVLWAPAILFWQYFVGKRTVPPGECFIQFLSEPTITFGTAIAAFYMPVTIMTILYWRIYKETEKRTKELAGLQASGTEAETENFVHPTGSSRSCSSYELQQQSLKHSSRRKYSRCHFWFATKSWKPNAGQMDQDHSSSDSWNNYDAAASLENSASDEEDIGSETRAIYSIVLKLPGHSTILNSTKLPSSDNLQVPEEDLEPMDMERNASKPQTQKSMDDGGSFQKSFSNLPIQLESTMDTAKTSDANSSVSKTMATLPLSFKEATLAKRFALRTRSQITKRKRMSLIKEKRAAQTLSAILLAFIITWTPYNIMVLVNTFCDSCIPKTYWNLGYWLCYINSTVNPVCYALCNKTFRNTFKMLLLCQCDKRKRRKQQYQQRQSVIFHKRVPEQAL
Sequence of 5-hydroxytryptamine receptor 7 (P34969 whole entry): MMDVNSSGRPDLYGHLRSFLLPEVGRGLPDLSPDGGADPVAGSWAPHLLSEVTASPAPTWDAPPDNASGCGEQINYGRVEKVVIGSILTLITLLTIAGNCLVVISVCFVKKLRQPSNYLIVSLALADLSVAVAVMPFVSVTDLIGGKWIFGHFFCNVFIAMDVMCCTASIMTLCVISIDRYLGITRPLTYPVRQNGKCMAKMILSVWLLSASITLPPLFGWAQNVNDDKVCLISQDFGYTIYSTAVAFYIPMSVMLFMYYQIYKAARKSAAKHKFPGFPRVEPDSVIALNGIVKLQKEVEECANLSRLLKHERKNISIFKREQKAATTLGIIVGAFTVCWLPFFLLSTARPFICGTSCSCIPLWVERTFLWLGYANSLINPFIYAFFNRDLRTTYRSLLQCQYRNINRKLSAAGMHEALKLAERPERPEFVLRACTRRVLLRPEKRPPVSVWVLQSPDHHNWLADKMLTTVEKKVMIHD
Sequence of Histamine H1 receptor (P31389 whole entry): as the sequence (P31389 whole entry) above

CCCC(CCC)C(=O)O [VALPROIC ACID]
ED50 (Mus musculus [1]): 220 mg/kg | ED50 (Mus musculus [2]): 126 mg/kg | ED50 (Mus musculus [3]): 310 mg/kg

CC1CCN(CCCCCCOc2ccc3ccccc3c2)CC1
Ki (Histamine H3 receptor [4]): 92.1 nM

COc1cccc2c1C(=O)c1c(O)c3c(c(O)c1C2=O)C[C@@](O)(C(=O)CO)C[C@@H]3O[C@H]1C[C@H](N)[C@H](O)[C@H](C)O1 [DOXORUBICIN]
IC50 (HEK293): 360 nM | IC50 (IMR-32): 50 nM | IC50 (HepG2): 550 nM

c1ccc2cc(OCCCCCN3CCCCCC3)ccc2c1
Ki (Histamine H3 receptor [4]): 57.3 nM

CC1CCCN(CCCCCOc2cccc3ccccc23)C1 (stereo unspecified)
Ki (Histamine H3 receptor [4]): 32.8 nM | IC50 (HEK293): > 50000 nM | IC50 (IMR-32): 32300 nM | IC50 (HepG2): 38600 nM | inhibition at 25 µM (CYP3A4): 50% | Activity (Salmonella typhimurium [5]): Non-Toxic | Activity (Salmonella typhimurium [6]): Non-Toxic

c1ccc2cc(OCCCCCCN3CCCCCC3)ccc2c1
Ki (Histamine H3 receptor [4]): 69.3 nM

CC1CCCN(CCCCCCOc2ccc3ccccc3c2)C1 (stereo unspecified)
Ki (Histamine H3 receptor [4]): 55.9 nM

c1ccc2cc(OCCCCCN3CCCCC3)ccc2c1
Ki (Histamine H3 receptor [4]): 53.5 nM

Nc1nnc(-c2cccc(Cl)c2Cl)c(N)n1 [LAMOTRIGINE]
TD50 at 0.25 h [7]: 30 mg/kg | ED50 (Mus musculus [8]): 7.47 mg/kg | ED50 (Mus musculus [1]): > 40 mg/kg | ED50 (Mus musculus [2]): > 60 mg/kg | ED50 (Mus musculus [3]): > 60 mg/kg | selectivity ratio [9]: 4

CC1CCN(CCCCCOc2cccc3ccccc23)CC1
Ki (Histamine H3 receptor [4]): 43.3 nM

S=C(NC1CCCCC1)N1CCC(c2cnc[nH]2)CC1 [THIOPERAMIDE]
Ki (Histamine H3 receptor [10]): 2.1 nM

c1ccc2cc(OCCCCCCN3CCCCC3)ccc2c1
Ki (Histamine H3 receptor [4]): 61.8 nM

CC1CCN(CCCCCCOc2cccc3ccccc23)CC1
Ki (Histamine H3 receptor [4]): 126 nM

CN1CC[C@]23c4c5ccc(O)c4O[C@H]2[C@@H](O)C=C[C@H]3[C@H]1C5 [MORPHINE]
ED50 (Mus musculus [11]): 2.38 mg/kg

c1ccc2c(OCCCCCN3CCCCCC3)cccc2c1
Activity (Mus musculus [12]): inactive | Ki (Histamine H3 receptor [4]): 21.9 nM | IC50 (Histamine H3 receptor [13]): 312 nM | inhibition (Histamine H3 receptor [13]): Dose-dependent effect | ED50 (Rattus norvegicus [14]): 3.68 mg/kg | Activity [15]: inactive | Activity [16]: inactive | inhibition [17]: Dose-dependent effect | Kb (Histamine H1 receptor): 708 nM | Time (Mus musculus [18]): 91.47 s | Time (Mus musculus [19]): 83.61 s | ED50 (Mus musculus [11]): 30.6 mg/kg | ED50 (Mus musculus [20]): 20.8 mg/kg | ED50 (Mus musculus [21]): 20.47 mg/kg | inhibition [22]: 19% | inhibition [23]: 29% | inhibition [24]: 14% | inhibition [25]: -10% | inhibition [26]: 12% | inhibition [27]: 17% | Ki [28]: 2610 nM | Ki [29]: 1840 nM | Ki [30]: 2800 nM | IC50 (HEK293): > 50000 nM | IC50 (IMR-32): 35700 nM | IC50 (HepG2): 25300 nM | inhibition at 25 µM (CYP3A4): 50% | Activity (Salmonella typhimurium [5]): Non-Toxic | Activity (Salmonella typhimurium [6]): Non-Toxic

CC(=O)Oc1ccccc1C(=O)O [ASPIRIN]
ED50 (Mus musculus [20]): 25.2 mg/kg

Clc1ccc(CCCOCCCN2CCCCC2)cc1 [PITOLISANT]
inhibition in vivo at 1.25 mg/kg (Rattus norvegicus [31]): 87.4%

c1ccc2c(OCCCCCCN3CCCCC3)cccc2c1
Ki (Histamine H3 receptor [4]): 52.9 nM

c1ccc2c(OCCCCCCN3CCCCCC3)cccc2c1
Ki (Histamine H3 receptor [4]): 69.3 nM | Time (Mus musculus [18]): 87.77 s | Time (Mus musculus [32]): 68.64 s | ED50 (Mus musculus [11]): 28.3 mg/kg | ED50 (Mus musculus [20]): 18.1 mg/kg | ED50 (Mus musculus [21]): 21.66 mg/kg | Ki (Histamine H3 receptor [33]): 69 nM

CC1CCCN(CCCCCCOc2cccc3ccccc23)C1 (stereo unspecified)
Ki (Histamine H3 receptor [4]): 47.6 nM

CC1CCN(CCCCCOc2ccc3ccccc3c2)CC1
Ki (Histamine H3 receptor [4]): 95 nM

CC1CCCN(CCCCCOc2ccc3ccccc3c2)C1 (stereo unspecified)
Ki (Histamine H3 receptor [4]): 42.3 nM
